Columns and labels:
FLT1 (human) = FLT1 (human) (UniProt P17948)
IKBKE (human) = IKBKE (human) (UniProt Q14164)
BTK (human) = BTK (human) (UniProt Q06187)
MAPK15 (human) = MAPK15 (human) (UniProt Q8TD08)
PIM2 (human) = PIM2 (human) (UniProt Q9P1W9)
CAMKK2 (human) = CAMKK2 (human) (UniProt Q96RR4)
PRKCA (human) = PRKCA (human) (UniProt P17252)
MST4 (human) = MST4 (human) (UniProt Q9P289)
TBK1 (human) = TBK1 (human) (UniProt Q9UHD2)
CDK2 CCNA2 (human) = CDK2 CCNA2 (human) (UniProt P20248+P24941)
MAPK1 (human) = MAPK1 (human) (UniProt P28482)
Sequence of MAPK1 (human) (P28482 whole entry, looked up): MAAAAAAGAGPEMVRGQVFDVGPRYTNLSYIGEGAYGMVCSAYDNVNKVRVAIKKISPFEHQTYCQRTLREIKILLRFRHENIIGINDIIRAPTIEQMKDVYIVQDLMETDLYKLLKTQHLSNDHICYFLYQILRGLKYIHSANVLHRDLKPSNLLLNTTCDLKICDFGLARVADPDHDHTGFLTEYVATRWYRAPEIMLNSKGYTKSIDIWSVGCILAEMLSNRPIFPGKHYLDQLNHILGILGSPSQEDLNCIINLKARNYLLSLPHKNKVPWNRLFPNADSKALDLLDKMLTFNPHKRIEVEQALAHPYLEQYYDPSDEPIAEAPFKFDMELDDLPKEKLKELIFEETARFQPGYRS

MAPK8 (human) = MAPK8 (human) (UniProt P45983); details: compound 1.0 µM
[1] = tested on: RPS6KB1 (human), P23443 [T412E]
CHEK1 (human) = CHEK1 (human) (UniProt O14757)
EPHA2 (human) = EPHA2 (human) (UniProt P29317)
EEF2K (human) = EEF2K (human) (UniProt O00418)
Sequence of EEF2K (human) (O00418 whole entry, looked up): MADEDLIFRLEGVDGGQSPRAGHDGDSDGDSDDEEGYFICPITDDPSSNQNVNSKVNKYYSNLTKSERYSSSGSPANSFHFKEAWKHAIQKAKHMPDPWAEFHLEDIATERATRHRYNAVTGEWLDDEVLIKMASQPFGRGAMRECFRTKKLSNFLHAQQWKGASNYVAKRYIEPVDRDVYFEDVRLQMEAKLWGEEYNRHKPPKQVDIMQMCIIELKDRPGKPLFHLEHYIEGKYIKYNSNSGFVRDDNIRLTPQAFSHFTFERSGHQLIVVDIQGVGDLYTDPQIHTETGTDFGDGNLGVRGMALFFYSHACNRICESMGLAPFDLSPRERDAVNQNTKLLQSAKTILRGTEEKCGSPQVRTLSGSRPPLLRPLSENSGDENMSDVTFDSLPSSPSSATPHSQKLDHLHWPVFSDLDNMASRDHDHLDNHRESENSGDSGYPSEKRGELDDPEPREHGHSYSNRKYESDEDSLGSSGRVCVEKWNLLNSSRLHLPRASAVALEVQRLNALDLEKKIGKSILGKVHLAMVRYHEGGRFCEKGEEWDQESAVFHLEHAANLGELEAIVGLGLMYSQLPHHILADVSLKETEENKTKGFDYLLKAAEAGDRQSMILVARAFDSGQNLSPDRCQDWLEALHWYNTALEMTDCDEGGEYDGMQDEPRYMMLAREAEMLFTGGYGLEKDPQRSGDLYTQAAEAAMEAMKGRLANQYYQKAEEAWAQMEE

CSNK2A1 (human) = CSNK2A1 (human) (UniProt P68400); details: compound 10.0 µM
IKBKB (human) = IKBKB (human) (UniProt O14920)
MAPK14 (human) = MAPK14 (human) (UniProt Q16539)
Sequence of MAPK14 (human) (Q16539 whole entry, looked up): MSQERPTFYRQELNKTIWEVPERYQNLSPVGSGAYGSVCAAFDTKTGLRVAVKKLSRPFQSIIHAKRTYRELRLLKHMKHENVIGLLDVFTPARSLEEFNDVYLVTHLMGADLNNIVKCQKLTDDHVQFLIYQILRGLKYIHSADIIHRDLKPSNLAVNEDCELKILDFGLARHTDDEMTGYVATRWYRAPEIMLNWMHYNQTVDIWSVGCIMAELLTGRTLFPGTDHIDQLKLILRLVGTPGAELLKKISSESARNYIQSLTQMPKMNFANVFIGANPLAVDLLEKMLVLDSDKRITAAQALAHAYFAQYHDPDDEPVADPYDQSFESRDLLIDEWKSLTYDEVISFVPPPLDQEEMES

IGF1R (human) = IGF1R (human) (UniProt P08069)
MAPKAPK5 (human) = MAPKAPK5 (human) (UniProt Q8IW41)
MAPK11 (human) = MAPK11 (human) (UniProt Q15759)
YES1 (human) = YES1 (human) (UniProt P07947)
Sequence of YES1 (human) (P07947 whole entry, looked up): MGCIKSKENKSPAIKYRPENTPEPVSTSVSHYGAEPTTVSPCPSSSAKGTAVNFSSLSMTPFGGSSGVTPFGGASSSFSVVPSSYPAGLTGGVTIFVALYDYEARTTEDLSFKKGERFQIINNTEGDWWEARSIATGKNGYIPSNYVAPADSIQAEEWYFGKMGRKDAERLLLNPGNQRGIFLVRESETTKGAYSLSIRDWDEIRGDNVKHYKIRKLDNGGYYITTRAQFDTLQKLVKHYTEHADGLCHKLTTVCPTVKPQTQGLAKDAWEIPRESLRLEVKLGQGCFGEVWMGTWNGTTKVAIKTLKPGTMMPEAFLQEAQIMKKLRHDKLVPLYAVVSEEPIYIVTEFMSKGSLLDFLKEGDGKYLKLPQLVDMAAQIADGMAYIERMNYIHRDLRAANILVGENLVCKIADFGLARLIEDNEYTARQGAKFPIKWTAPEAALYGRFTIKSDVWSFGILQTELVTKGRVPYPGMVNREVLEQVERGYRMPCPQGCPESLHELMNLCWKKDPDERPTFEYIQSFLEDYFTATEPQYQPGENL

PIM3 (human) = PIM3 (human) (UniProt Q86V86)
GSK3B (human) = GSK3B (human) (UniProt P49841)
MAPK13 (human) = MAPK13 (human) (UniProt O15264)
Sequence of MAPK13 (human) (O15264 whole entry, looked up): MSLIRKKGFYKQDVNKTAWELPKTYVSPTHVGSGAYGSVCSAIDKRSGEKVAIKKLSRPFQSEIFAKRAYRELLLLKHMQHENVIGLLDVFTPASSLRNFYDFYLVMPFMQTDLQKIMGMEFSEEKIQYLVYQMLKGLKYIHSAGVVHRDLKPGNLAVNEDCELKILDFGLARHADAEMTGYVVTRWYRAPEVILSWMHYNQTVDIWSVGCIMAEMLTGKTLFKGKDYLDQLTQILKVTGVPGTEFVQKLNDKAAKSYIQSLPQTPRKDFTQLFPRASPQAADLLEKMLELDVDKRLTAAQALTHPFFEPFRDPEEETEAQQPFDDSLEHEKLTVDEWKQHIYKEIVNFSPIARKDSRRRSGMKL

SYK (human) = SYK (human) (UniProt P43405)
MAPK12 (human) = MAPK12 (human) (UniProt P53778)
PRKACA (human) = PRKACA (human) (UniProt P17612)
SRPK1 (human) = SRPK1 (human) (UniProt Q96SB4)
Sequence of SRPK1 (human) (Q96SB4 whole entry, looked up): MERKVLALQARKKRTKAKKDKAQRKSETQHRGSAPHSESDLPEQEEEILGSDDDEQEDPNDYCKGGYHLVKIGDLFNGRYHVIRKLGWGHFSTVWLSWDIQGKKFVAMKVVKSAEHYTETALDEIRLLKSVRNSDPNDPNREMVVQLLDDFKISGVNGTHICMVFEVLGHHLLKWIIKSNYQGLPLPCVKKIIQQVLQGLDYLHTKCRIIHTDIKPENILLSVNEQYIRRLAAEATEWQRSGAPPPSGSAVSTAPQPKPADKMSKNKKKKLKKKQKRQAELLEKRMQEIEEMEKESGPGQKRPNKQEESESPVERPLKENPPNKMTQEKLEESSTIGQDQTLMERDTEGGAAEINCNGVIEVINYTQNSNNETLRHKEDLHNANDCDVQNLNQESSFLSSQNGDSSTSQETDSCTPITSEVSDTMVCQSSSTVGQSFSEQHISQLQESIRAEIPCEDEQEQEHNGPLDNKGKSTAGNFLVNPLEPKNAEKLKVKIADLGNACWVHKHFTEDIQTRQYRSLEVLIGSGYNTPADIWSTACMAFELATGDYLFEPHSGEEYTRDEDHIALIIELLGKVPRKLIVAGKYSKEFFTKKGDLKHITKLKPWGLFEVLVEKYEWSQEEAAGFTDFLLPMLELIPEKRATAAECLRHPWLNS

MAPKAPK2 (human) = MAPKAPK2 (human) (UniProt P49137)
PLK1 (human) = PLK1 (human) (UniProt P53350)
LCK (mouse) = details: accession and sequence are those of the human protein
MAP2K1 (human) = MAP2K1 (human) (UniProt Q02750)

Sequence of BTK (human) (Q06187 whole entry, looked up): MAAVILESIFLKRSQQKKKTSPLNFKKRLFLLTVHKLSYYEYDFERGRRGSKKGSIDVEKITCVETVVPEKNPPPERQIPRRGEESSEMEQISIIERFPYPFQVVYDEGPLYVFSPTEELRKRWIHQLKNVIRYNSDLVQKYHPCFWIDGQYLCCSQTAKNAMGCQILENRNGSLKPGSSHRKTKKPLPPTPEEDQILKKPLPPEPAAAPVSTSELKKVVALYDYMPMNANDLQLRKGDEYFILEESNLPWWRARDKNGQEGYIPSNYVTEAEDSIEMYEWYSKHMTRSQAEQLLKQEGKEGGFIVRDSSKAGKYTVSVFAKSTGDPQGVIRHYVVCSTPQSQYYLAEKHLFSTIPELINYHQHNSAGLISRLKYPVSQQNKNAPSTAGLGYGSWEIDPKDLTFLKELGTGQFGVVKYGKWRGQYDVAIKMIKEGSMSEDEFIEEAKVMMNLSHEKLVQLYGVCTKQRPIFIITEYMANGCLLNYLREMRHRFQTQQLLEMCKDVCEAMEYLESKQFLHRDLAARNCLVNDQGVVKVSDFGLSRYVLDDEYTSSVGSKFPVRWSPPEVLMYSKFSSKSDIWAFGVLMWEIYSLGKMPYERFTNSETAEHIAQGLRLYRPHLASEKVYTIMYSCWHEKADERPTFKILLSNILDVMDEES
Sequence of MST4 (human) (Q9P289 whole entry, looked up): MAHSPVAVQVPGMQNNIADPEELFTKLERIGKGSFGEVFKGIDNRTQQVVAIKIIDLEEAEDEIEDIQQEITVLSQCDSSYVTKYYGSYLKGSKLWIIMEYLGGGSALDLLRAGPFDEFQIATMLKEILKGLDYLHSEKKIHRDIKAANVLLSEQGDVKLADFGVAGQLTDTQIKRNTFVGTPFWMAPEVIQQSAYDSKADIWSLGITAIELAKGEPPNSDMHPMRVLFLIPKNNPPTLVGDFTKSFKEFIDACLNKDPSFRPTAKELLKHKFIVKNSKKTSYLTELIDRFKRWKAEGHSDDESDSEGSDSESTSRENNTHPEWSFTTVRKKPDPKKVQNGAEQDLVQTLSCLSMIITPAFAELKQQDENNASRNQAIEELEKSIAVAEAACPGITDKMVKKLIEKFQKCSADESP

CCC(=O)N1CCN(c2ccc(-n3c(=O)ccc4cnc5ccc(-c6cnc7ccccc7c6)cc5c43)cc2C(F)(F)F)CC1
per cent of control (FLT1 (human); compound 1.0 µM): 108%
per cent of control (FLT1 (human); compound 10.0 µM): 84%
per cent of control (IKBKE (human); compound 1.0 µM): 96%
per cent of control (IKBKE (human); compound 10.0 µM): 85%
per cent of control (BTK (human); compound 1.0 µM): 104%
per cent of control (BTK (human); compound 10.0 µM): 56%
per cent of control (MAPK15 (human); compound 1.0 µM): 78%
per cent of control (MAPK15 (human); compound 10.0 µM): 46%
per cent of control (PIM2 (human); compound 1.0 µM): 86%
per cent of control (PIM2 (human); compound 10.0 µM): 96%
per cent of control (CAMKK2 (human); compound 1.0 µM): 95%
per cent of control (CAMKK2 (human); compound 10.0 µM): 81%
per cent of control (PRKCA (human); compound 1.0 µM): 83%
per cent of control (PRKCA (human); compound 10.0 µM): 68%
per cent of control (MST4 (human); compound 1.0 µM): 96%
per cent of control (MST4 (human); compound 10.0 µM): 89%
per cent of control (TBK1 (human); compound 1.0 µM): 96%
per cent of control (TBK1 (human); compound 10.0 µM): 87%
per cent of control (CDK2 CCNA2 (human); compound 1.0 µM): 108%
per cent of control (CDK2 CCNA2 (human); compound 10.0 µM): 77%
per cent of control (MAPK1 (human); compound 1.0 µM): 102%
per cent of control (MAPK1 (human); compound 10.0 µM): 90%
per cent of control (MAPK8 (human)): 98%
per cent of control ([1]; compound 1.0 µM): 97%
per cent of control ([1]; compound 10.0 µM): 81%
per cent of control (CHEK1 (human); compound 1.0 µM): 106%
per cent of control (CHEK1 (human); compound 10.0 µM): 125%
per cent of control (EPHA2 (human); compound 1.0 µM): 120%
per cent of control (EPHA2 (human); compound 10.0 µM): 87%
per cent of control (EEF2K (human); compound 1.0 µM): 118%
per cent of control (EEF2K (human); compound 10.0 µM): 111%
per cent of control (CSNK2A1 (human)): 95%
per cent of control (IKBKB (human); compound 1.0 µM): 109%
per cent of control (IKBKB (human); compound 10.0 µM): 63%
per cent of control (MAPK14 (human); compound 1.0 µM): 95%
per cent of control (MAPK14 (human); compound 10.0 µM): 99%
per cent of control (IGF1R (human); compound 1.0 µM): 100%
per cent of control (IGF1R (human); compound 10.0 µM): 93%
per cent of control (MAPKAPK5 (human); compound 1.0 µM): 118%
per cent of control (MAPKAPK5 (human); compound 10.0 µM): 49%
per cent of control (MAPK11 (human); compound 1.0 µM): 83%
per cent of control (MAPK11 (human); compound 10.0 µM): 78%
per cent of control (YES1 (human); compound 1.0 µM): 113%
per cent of control (YES1 (human); compound 10.0 µM): 78%
per cent of control (PIM3 (human); compound 1.0 µM): 85%
per cent of control (PIM3 (human); compound 10.0 µM): 30%
per cent of control (GSK3B (human); compound 1.0 µM): 79%
per cent of control (GSK3B (human); compound 10.0 µM): 49%
per cent of control (MAPK13 (human); compound 1.0 µM): 106%
per cent of control (MAPK13 (human); compound 10.0 µM): 97%
per cent of control (SYK (human); compound 1.0 µM): 131%
per cent of control (SYK (human); compound 10.0 µM): 68%
per cent of control (MAPK12 (human); compound 1.0 µM): 103%
per cent of control (MAPK12 (human); compound 10.0 µM): 129%
per cent of control (PRKACA (human); compound 1.0 µM): 106%
per cent of control (PRKACA (human); compound 10.0 µM): 96%
per cent of control (SRPK1 (human); compound 1.0 µM): 107%
per cent of control (SRPK1 (human); compound 10.0 µM): 110%
per cent of control (MAPKAPK2 (human); compound 1.0 µM): 102%
per cent of control (MAPKAPK2 (human); compound 10.0 µM): 108%
per cent of control (PLK1 (human); compound 1.0 µM): 94%
per cent of control (PLK1 (human); compound 10.0 µM): 84%
per cent of control (LCK (mouse); compound 1.0 µM): 93%
per cent of control (LCK (mouse); compound 10.0 µM): 78%
per cent of control (MAP2K1 (human); compound 1.0 µM): 69%
per cent of control (MAP2K1 (human); compound 10.0 µM): 22%

Source: the kinase profiling compilation of Christmann-Franck et al. (2016)
